For one substance, Haemolysis rate results are on record in publication PMC6010013, “Synthesis, physiochemical property and antimicrobial activity of novel quaternary ammonium salts” (Journal of Enzyme Inhibition and Medicinal Chemistry, 2017).

In the data set the test system is red blood cells. As to the kind of experiment: Haemolysis assay. Type of data set: cell-based. Conditions: human red blood cells, 1 h at 37 ℃. The method, boiled down: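 Washed erythrocytes from heparinized healthy human blood were diluted to 0.2% in saline and mixed 1:1 with compound solutions (3.125–400 μg/mL before mixing) for 1 h at 37 °C. Supernatant absorbance at 540 nm was scaled to saline (0%) and distilled water (100%) controls. Results are triplicate mean ± SD.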

In turn, “Benzalkonium chloride [BZK, reference compound]” yielded a Haemolysis rate (6.25 μg/mL) of 1.51 ± 0.31%; a Haemolysis rate (12.50 μg/mL) of 1.39 ± 0.38%; a Haemolysis rate (25.00 μg/mL) of 12.69 ± 1.87%; a Haemolysis rate (50.00 μg/mL) of 63.85 ± 4.56%; a Haemolysis rate (100.00 μg/mL) of 92.36 ± 3.78%; a Haemolysis rate (200.00 μg/mL) of 96.28 ± 2.97%. In addition, the Haemolysis rate (400.00 μg/mL) stood at 98.53 ± 1.23%.
